# Where two headings read alike, the source gives them in different places.
# Experiments:
# [1] = in vivo; cited from earlier work
# [2] = several clinical studies; cited from earlier work
# [3] = for plasma levels of nicotine by dose group: single and repeated dose parts
# Experimental: The chamber 10 is a plastic drinking straw. The retainer 18 is a filter at the first end 12 of the straw. The user places the first end 12 of the device in a glass of apple juice and applies oral suction to the second end 14 of the device, such that the juice and nicotine 16 are delivered into the user's mouth.
# The nicotine 16 in the device is in the form of coated sugar spheres of nicotine bitartrate having a diameter of approximately 500 micrometers. The nicotine spheres are prepared by spraying nicotine bitartrate dihydrate with a binder onto sugar spheres and applying a film coating. Using a Wurster processing unit, particles are suspended in air using a controlled airflow system and a coating suspension is added at a controlled rate via a pneumatically atomized nozzle. As atomized droplets of the coating solution contact the particles, they spread and coalesce on the particle surface. Excess moisture from the applied liquid evaporates in the apparatus, leaving a coated dry substance. Mixing of the coating suspension occurs throughout the manufacturing process to ensure uniformity of the suspension.
# (§1) On day one, following overnight abstinence from smoking, healthy adult smokers who wish to give up smoking receive a single dose of nicotine or placebo. Smokers are assigned to each dosage group in a double blind, randomized manner, as is well known in the art. The following data are collected before dosing, every thirty minutes for the first two hours after dosing, and every hour for the following six hours: plasma levels of nicotine and cotinine, vital signs, adverse events, and patient's assessment of cigarette cravings. Baseline and endpoint clinical chemistry, hematology, urinalysis, and ECG are also monitored.
# (§2) There were 6 subjects per treatment group. […] Apple juice was used as the beverage for delivering nicotine from the straw-like device.
# [4] = Excerpt: as §1
# On day eight, again following overnight abstinence from smoking, the same subjects receive the same dose of nicotine or placebo. The dose is repeated periodically throughout the day. The following data are collected as described above before the first dosing and one hour after each dose is administered: plasma levels of nicotine and cotinine, vital signs, adverse events, and patient's assessment of cigarette cravings. Baseline and endpoint clinical chemistry, hematology, urinalysis, and ECG are also monitored. The data are used to evaluate the safety and pharmacokinetics of nicotine delivery by the smoking cessation device.
# as §2
structure (smiles),measurement,setting,value
Oc1ccc2c3c1O[C@H]1[C@H](O)CC[C@@]4(O)[C@@H](C2)N(CC2CC2)CC[C@]314 [6β-naltrexol],plasma half-life,[1],12 h
"O=C1CC[C@@]2(O)[C@H]3Cc4ccc(O)c5c4[C@@]2(CCN3CC2CC2)[C@H]1O5 [Naltrexone, naltrexone]",effects on smoking cessation,[2],only small effects
CN1CCCC1c1cccnc1 (centres unmarked) [nicotine],plasma levels of nicotine by dose group,[3]; 4 mg dose group,lowest plasma levels
same,plasma levels of nicotine by dose group,[3]; 8 mg and 12 mg dose groups,higher plasma levels
same,nicotine levels in most subjects,[3]; 15 minutes after dosing,already increased
same,plasma nicotine on repeated dosing,"[3]; repeated dosing every 1.5 hours, 10.5 hour sampling period",continuous increases
same,plasma levels of nicotine versus marketed nicotine replacement products,"[3]; single dose 4 mg, 8 mg or 12 mg, straw-like device, FIG. 3",comparable to or greater than
same,kinetics compared with nicotine gum,"[3]; straw-like device, FIG. 4",very similar
same,tolerability,[4]; 4 mg and 8 mg doses in straw-like delivery device,well tolerated
same,nausea and vomiting,[4]; 12 mg dose versus 4 mg and 8 mg,seen only with the 12 mg dose
same,adverse events observed,[4]; all nicotine doses,"lightheadedness, nausea, and vomiting"
same,"clinical chemistry, hematology, urinalysis or ECG values","[4]; human, in vivo",no clinically significant changes
same,vital sign measurements,"[4]; human, in vivo",Occasional increases
same,craving for cigarettes,"[4]; over the repeat dosing session, all subjects receiving nicotine",decreased

# From patent US20030111088A1, “Device and method for treating combination dependencies” (Addiction Therapies, Inc., priority 2001, published 2003)
